Source: patent US8618085B2, “Therapeutic formulations of desoxyepothilones” (Koasn Biosciences Incorporated, priority 2000, dated 2013)

Assay: Dilution stability of epothilone D formulations, visual appearance
Type: physicochemical
Design: key: remained clear; ppt: precipitation; xtal: crystallization
Conditions: for Visual Appearance Initial: undiluted; for Visual Appearance Saline Dilution 0 h / Visual Appearance Saline Dilution 12 h: 1:10 into 0.45% saline; for Visual Appearance RODI Dilution 0 h / Visual Appearance RODI Dilution 12 h / Visual Appearance RODI Dilution 24 h / Visual Appearance RODI Dilution 36 h / Visual Appearance RODI Dilution 48 h: 1:10 into RODI water; for Visual Appearance Saline Dilution 1:08 1 h / Visual Appearance Saline Dilution 1:10 1 h / Visual Appearance Saline Dilution 1:12 1 h: 0.9% saline
Protocol: The dilution stability of epothilone D formulations at 8-20 mg/mL in various formulations was examined. A stock solution of epothilone D (100 mg/mL) was prepared in ethanol. Epothilone D formulations were prepared as listed in the following tables by addition of the requisite amount of ethanol, PEG400, 10% Tween® 80, and either propylene glycol or glycerol to the appropriate volume of the epothilone D stock solution. The solubility of epothilone D in each vial was observed visually following gentle swirling. Each formulation was syringe filtered through a 0.2 micron PVDF filter. Each formulation was subsequently diluted 1:8, 1:10, or 1:12 in reverse osmosis deionized water (RODI) or 0.9% saline. Visual observations were taken upon preparation, upon dilution, and both 1 and 24 hours after incubation at ambient temperature.
The dilution stability up to 48 hours post-dilution was examined for the above formulations containg 8-11 mg/mL of epothilone D after 1:10 dilution into either RODI water or 0.45% saline, as summarized in Tables 12 and 13 below.

[1] = 11 mg/mL epo D in 10% Tween 80, 50% ethanol, 30% PEG400, 10% propylene glycol
[2] = 11 mg/mL epo D in 10% Tween 80, 60% ethanol, 20% PEG400, 10% glycerol
[3] = 12 mg/mL epo D in 10% Tween 80, 50% ethanol, 30% PEG400, 10% propylene glycol
[4] = 12 mg/mL epo D in 10% Tween 80, 60% ethanol, 20% PEG400, 10% glycerol
[5] = 16 mg/mL epo D in 10% Tween 80, 50% ethanol, 30% PEG400, 10% propylene glycol
[6] = 16 mg/mL epo D in 10% Tween 80, 60% ethanol, 20% PEG400, 10% glycerol
[7] = 20 mg/mL epo D in 10% Tween 80, 50% ethanol, 30% PEG400, 10% propylene glycol
[8] = 20 mg/mL epo D in 10% Tween 80, 60% ethanol, 20% PEG400, 10% glycerol
[9] = Table 12: 10 mg/mL epo D in 10% Tween 80, 60% ethanol, 20% PEG400, 10% glycerol
[10] = Table 13: 10 mg/mL epo D in 10% Tween 80, 50% ethanol, 30% PEG400, 10% propylene glycol

Q: Which “Visual Appearance Initial” value (10 mg/mL epo D in 10% Tween 80, 60% ethanol, 20% PEG400, 10% glycerol) does the source give for `C/C1=C/CC(/C(C)=C/c2csc(C)n2)OC(=O)C[C@H](O)C(C)(C)C(=O)[C@H](C)[C@@H](O)[C@@H](C)CCC1` (stereo partly drawn) [Epothilone D, Desoxyepothilone B] here?
A: Its value is “clear”.

Q: And the “Visual Appearance Saline Dilution 0 h” value [1]?
A: The value was “clear”.

Q: What about the “Visual Appearance Saline Dilution 12 h” value [1] of the same molecule?
A: The value was “xtal”.

Q: And the “Visual Appearance RODI Dilution 0 h” value [1]?
A: Its value is “clear”.

Q: What about the “Visual Appearance RODI Dilution 12 h” value [1] of the same molecule?
A: The value was “xtal”.

Q: What about the “Visual Appearance Initial” value [1] of the same molecule?
A: Its value is “clear”.

Q: And the “Visual Appearance Saline Dilution 0 h” value [2]?
A: The value was “clear”.

Q: What about the “Visual Appearance Saline Dilution 12 h” value [2] of the same molecule?
A: Its value is “xtal”.

Q: And the “Visual Appearance RODI Dilution 0 h” value [2]?
A: Its value is “clear”.

Q: What about the “Visual Appearance RODI Dilution 12 h” value [2] of the same molecule?
A: Its value is “xtal”.

Q: What about the “Visual Appearance Initial” value [2] of the same molecule?
A: The value was “clear”.

Q: What about the “Visual Appearance RODI Dilution 1:08 0 h” value [3] of the same molecule?
A: Its value is “clear”.

Q: What about the “Visual Appearance RODI Dilution 1:08 24 h” value [3] of the same molecule?
A: Its value is “clear”.

Q: What about the “Visual Appearance RODI Dilution 1:10 0 h” value [3] of the same molecule?
A: The value was “clear”.

Q: What about the “Visual Appearance RODI Dilution 1:10 24 h” value [3] of the same molecule?
A: Its value is “clear”.

Q: What about the “Visual Appearance RODI Dilution 1:12 0 h” value [3] of the same molecule?
A: Its value is “clear”.

Q: And the “Visual Appearance RODI Dilution 1:12 24 h” value [3]?
A: The value was “xtal”.

Q: What about the “Visual Appearance Saline Dilution 1:08 1 h” value [3] of the same molecule?
A: Its value is “xtal”.

Q: What about the “Visual Appearance Saline Dilution 1:10 1 h” value [3] of the same molecule?
A: The value was “xtal”.

Q: And the “Visual Appearance Saline Dilution 1:12 1 h” value [3]?
A: The value was “xtal”.

Q: What about the “Visual Appearance Initial” value [3] of the same molecule?
A: Its value is “clear”.

Q: And the “Visual Appearance RODI Dilution 1:08 0 h” value [4]?
A: Its value is “clear”.

Q: What about the “Visual Appearance RODI Dilution 1:08 24 h” value [4] of the same molecule?
A: Its value is “clear”.

Q: What about the “Visual Appearance RODI Dilution 1:10 0 h” value [4] of the same molecule?
A: The value was “clear”.

Q: And the “Visual Appearance RODI Dilution 1:10 24 h” value [4]?
A: The value was “clear”.

Q: And the “Visual Appearance RODI Dilution 1:12 0 h” value [4]?
A: The value was “clear”.

Q: What about the “Visual Appearance RODI Dilution 1:12 24 h” value [4] of the same molecule?
A: Its value is “xtal”.

Q: What about the “Visual Appearance Saline Dilution 1:08 1 h” value [4] of the same molecule?
A: The value was “xtal”.

Q: And the “Visual Appearance Saline Dilution 1:10 1 h” value [4]?
A: Its value is “xtal”.

Q: And the “Visual Appearance Saline Dilution 1:12 1 h” value [4]?
A: The value was “xtal”.

Q: What about the “Visual Appearance Initial” value [4] of the same molecule?
A: The value was “clear”.

Q: And the “Visual Appearance RODI Dilution 1:08 0 h” value [5]?
A: Its value is “ppt”.

Q: What about the “Visual Appearance RODI Dilution 1:10 0 h” value [5] of the same molecule?
A: Its value is “ppt”.

Q: What about the “Visual Appearance RODI Dilution 1:12 0 h” value [5] of the same molecule?
A: The value was “ppt”.

Q: And the “Visual Appearance Saline Dilution 1:08 1 h” value [5]?
A: The value was “ppt”.

Q: What about the “Visual Appearance Saline Dilution 1:10 1 h” value [5] of the same molecule?
A: Its value is “ppt”.

Q: And the “Visual Appearance Saline Dilution 1:12 1 h” value [5]?
A: The value was “ppt”.

Q: What about the “Visual Appearance Initial” value [5] of the same molecule?
A: The value was “clear”.

Q: And the “Visual Appearance RODI Dilution 1:08 0 h” value [6]?
A: Its value is “ppt”.

Q: What about the “Visual Appearance RODI Dilution 1:10 0 h” value [6] of the same molecule?
A: Its value is “ppt”.

Q: And the “Visual Appearance RODI Dilution 1:12 0 h” value [6]?
A: Its value is “ppt”.

Q: What about the “Visual Appearance Saline Dilution 1:08 1 h” value [6] of the same molecule?
A: Its value is “ppt”.

Q: And the “Visual Appearance Saline Dilution 1:10 1 h” value [6]?
A: The value was “ppt”.

Q: And the “Visual Appearance Saline Dilution 1:12 1 h” value [6]?
A: The value was “ppt”.

Q: What about the “Visual Appearance Initial” value [6] of the same molecule?
A: The value was “clear”.

Q: What about the “Visual Appearance RODI Dilution 1:08 0 h” value [7] of the same molecule?
A: Its value is “ppt”.

Q: What about the “Visual Appearance RODI Dilution 1:10 0 h” value [7] of the same molecule?
A: Its value is “ppt”.

Q: What about the “Visual Appearance RODI Dilution 1:12 0 h” value [7] of the same molecule?
A: Its value is “ppt”.

Q: And the “Visual Appearance Saline Dilution 1:08 1 h” value [7]?
A: The value was “ppt”.

Q: And the “Visual Appearance Saline Dilution 1:10 1 h” value [7]?
A: Its value is “ppt”.

Q: What about the “Visual Appearance Saline Dilution 1:12 1 h” value [7] of the same molecule?
A: The value was “ppt”.

Q: And the “Visual Appearance Initial” value [7]?
A: The value was “clear”.

Q: And the “Visual Appearance RODI Dilution 1:08 0 h” value [8]?
A: Its value is “ppt”.

Q: And the “Visual Appearance RODI Dilution 1:10 0 h” value [8]?
A: Its value is “ppt”.

Q: And the “Visual Appearance RODI Dilution 1:12 0 h” value [8]?
A: Its value is “ppt”.

Q: What about the “Visual Appearance Saline Dilution 1:08 1 h” value [8] of the same molecule?
A: Its value is “ppt”.

Q: And the “Visual Appearance Saline Dilution 1:10 1 h” value [8]?
A: Its value is “ppt”.

Q: And the “Visual Appearance Saline Dilution 1:12 1 h” value [8]?
A: The value was “ppt”.

Q: And the “Visual Appearance Initial” value [8]?
A: The value was “clear”.

Q: What about the “Visual Appearance Initial” value (Table 12: 8 mg/mL epo D in 10% Tween 80, 60% ethanol, 20% PEG400, 10% glycerol) of the same molecule?
A: Its value is “clear”.

Q: What about the “Visual Appearance Initial” value (Table 12: 9 mg/mL epo D in 10% Tween 80, 60% ethanol, 20% PEG400, 10% glycerol) of the same molecule?
A: Its value is “clear”.

Q: What about the “Visual Appearance RODI Dilution 0 h” value [9] of the same molecule?
A: Its value is “clear”.

Q: What about the “Visual Appearance RODI Dilution 12 h” value [9] of the same molecule?
A: The value was “clear”.

Q: And the “Visual Appearance RODI Dilution 24 h” value [9]?
A: The value was “clear”.

Q: And the “Visual Appearance RODI Dilution 36 h” value [9]?
A: The value was “clear”.

Q: And the “Visual Appearance RODI Dilution 48 h” value [9]?
A: The value was “xtal”.

Q: And the “Visual Appearance Initial” value [9]?
A: The value was “clear”.

Q: And the “Visual Appearance Initial” value (Table 13: 8 mg/mL epo D in 10% Tween 80, 50% ethanol, 30% PEG400, 10% propylene glycol)?
A: Its value is “clear”.

Q: What about the “Visual Appearance Initial” value (Table 13: 9 mg/mL epo D in 10% Tween 80, 50% ethanol, 30% PEG400, 10% propylene glycol) of the same molecule?
A: Its value is “clear”.

Q: And the “Visual Appearance RODI Dilution 0 h” value [10]?
A: Its value is “clear”.

Q: And the “Visual Appearance RODI Dilution 12 h” value [10]?
A: The value was “clear”.

Q: What about the “Visual Appearance RODI Dilution 24 h” value [10] of the same molecule?
A: Its value is “clear”.

Q: And the “Visual Appearance RODI Dilution 36 h” value [10]?
A: Its value is “clear”.

Q: What about the “Visual Appearance RODI Dilution 48 h” value [10] of the same molecule?
A: The value was “clear”.

Q: And the “Visual Appearance Initial” value [10]?
A: The value was “clear”.
